Our source for the IC50 values is patent US10550080B2 (BRISTOL-MYERS SQUIBB COMPANY, priority 2016, dated 2020).

Data set [1] has as its target NaV1.5 (Homo sapiens (Human), UniProt Q14524). The data set can be described thus: Automated electrophysiology, IonWorks Barracuda population patch clamp, NaV1.5 current (inactivated-state protocol). The format is cell-based. As to conditions: HEK 293 cells expressing NaV1.5; read-out: NaV1.5 Barra IC50. How it is done: (§1) Automated Electrophysiology: Ion Works Barracuda population patch clamp (PPC). PPC measurements were performed using an IonWorks Barracuda instrument (Molecular Devices Corporation, Union City, Calif.) using either PatchPlate™ PPC substrates (Molecular Devices Corporation) with 64 apertures per well. The ability to average currents from 64 recordings from each well greatly improves data consistency and recording success rates in the measurement of NaV1.7 mediated ionic currents. Calculated leak current was digitally subtracted from the total cell NaV1.7 current for each sample point acquired.
(§2) NaV1.7 currents were elicited by a voltage clamp protocol designed to bias the NaV1.7 channels to their inactivated state as follows. From holding potential of −60 mV cells were briefly hyperpolarized to −100 mV for 1.25 sec, then stepped to −20 mV for 20 sec to inactivate the channels. This was followed by a relatively brief hyperpolarization to −100 mv for 300 ms, then a 20 msec test pulse to −20 mV to elicit the NaV1.7 current used to measure the pharmacology of all test compounds. Compounds were incubated for 600 sec between the pre- and post-compound reads. The external recording solution used was (in mM) 137 NaCl, 4 KCl, 1 MgCl2, 1.8 CaCl2, 10 Hepes, 10 glucose, pH to 7.4 with NaOH, and the internal solution used was (in mM) 100 K-gluconate, 40 KCl, 3.2 zMgCl2, 5 EGTA, 10 HEPES pH to 7.2 with KOH. The same solutions were used to record NaV1.5 currents, with the following voltage clamp protocol. NaV1.5 currents were elicited by a voltage clamp protocol designed to bias the NaV1.5 channels to their inactivated state as follows. From holding potential of −40 mV cells were briefly hyperpolarized to −100 mV for 300 ms, then stepped to −10 mV for 20 sec to inactivate the channels. This was followed by a relatively brief hyperpolarization to −100 mv for 30 ms, then a 20 msec test pulse to −10 mV to elicit the NaV1.5 current used to measure the pharmacology of all test compounds.
(§3) HEK 293 cells expressing NaV1.7 and NaV1.5 channels, were used (Essen Biosciences, Ann Arbor, Mich.). Cells were cultured in T-175 flasks and passaged every 2 to 3 days at 1:3 to 1:6 seeding density dilutions. Cells were grown to 70% to 90% confluence in a flask and removed from the incubator (37° C., 5% CO2) 1 to 3 days after plating. Growth medium was aspirated from the culture flasks. Cells were gently rinsed with 10 ml of PBS (Catalog number: 14190144, Gibco) to remove residual media. Next a total of 2 mL TrypLE (Gibco) solution was added, and the flasks containing cells were sat for 3 min at RT, after which, the cells became visibly rounded and were easily dislodged from the bottom of the flask with a few brief taps on a solid surface. A total of 8 mL of media was added to the flask to inactivate the TrypLE, and the mixture was centrifuged at 910 rpm for 4 min. The cell supernatant was decanted, and the cell pellets were resuspended in 5-6 mL of external solution followed by gentle triturations using a 10 ml pipette, and transferred to a 15 ml conical tube and immediately brought to the IW Barracuda instrument.
(§4) Peak membrane currents were analyzed with IW Barracuda software and exported to Excel for further analysis. Concentration response curve fitting was performed with BMS in-house software. IC50 values were obtained by fits of the Hill equation to the average percent inhibition data plotted versus compound concentration. […] Results are reported in Table 1 (NaV1.7 Barra IC50 in nM and NaV1.5 Barra IC50 in nM).
(The patch-clamp technique gives a direct electrical read-out from membranes.)

Data set [2] concerns the target hNaV1.7 (Homo sapiens (Human), UniProt Q15858). Description: Ligand Binding Assay (LBA), radioligand displacement on hNaV1.7 HEK293 cell membranes. The note with it: 0.5 nM [3H] radioligand, 24 hours at room temperature; read-out: NaV1.7 LBA IC50. How it is done: Ligand Binding Assay (LBA): hNaV1.7 binding affinities were determined with a filtration binding assay using purified membranes from HEK293 cells stably expressing hNaV1.7. HEK293 cells from a 10-stack cell culture flask (approximately 10^10 cells) were dissociated, frozen, and stored at −80° C. To prepare membranes, the frozen cell pellet was thawed and suspended in 6 ml hypotonic lysis buffer (50 mM HEPES, 0.1% mammalian protease inhibitor cocktail). 1 ml of resuspended cells was added to an additional 6 ml of lysis buffer and homogenized with 30 strokes of a tight pestle in a glass homogenizer. Homogenate was centrifuged at 1000×g for 10 minutes at 4° C. and the resulting supernatant was further centrifuged at 38,500×g for 60 minutes at 4° C. The resulting pellet was resuspended in binding buffer (50 mM HEPES, 130 mM NaCl, 5.4 mM KCl, 0.8 mM MgCl2, 5 mM glucose, pH 7.4) and needle homogenized with a 25 gauge needle. Protein concentration was determined with a BCA protein assay. Purified membranes were aliquoted, flash frozen in an ethyl alcohol dry ice bath, and stored at −80° C. To measure displacement of a radiolabeled ligand, 50 μg of purified hNaV1.7 HEK cell membranes were incubated with test compounds (eight concentrations, in duplicate) and 0.5 nM [3H] labeled radioligand in a 96 well plate for 24 hours at room temperature on a shaker. The total binding reaction volume was 250 μl, consisting of 200 μl purified hNaV1.7 HEK cell membranes, 25 μl test compound, and 25 μl radioligand. Non-specific binding was defined by 20 μM of a reference hNaV1.7 inhibitor. Binding reactions were terminated by filtration through GF/B filters presoaked in 0.5% polyethyleneamine. Filters were washed 5 times with 2 ml each of 4′C wash buffer (50 mM Tris-HCl, pH 7.4 at 4° C.). Bound radioactivity captured on the filters was counted on a liquid scintillation counter. Specific binding, expressed as % inhibition, was fit with Graphpad Prism software to determine binding IC50 values. Results are reported in Table 1 (NaV1.7 LBA IC50 in nM).
On the technique in general: Loss of bound radioactivity is the signal in a displacement assay; it reports binding, not function.

The target of data set [3] is NaV1.7 (Homo sapiens (Human), UniProt Q15858). The data set can be described thus: Automated electrophysiology, IonWorks Barracuda population patch clamp, NaV1.7 current (inactivated-state protocol). The data set is classed as cell-based. As to conditions: HEK 293 cells expressing NaV1.7; 600 sec compound incubation; read-out: NaV1.7 Barra IC50. How it is done: as §1, §2, §3, §4
Sequence of NaV1.7 (Q15858 whole entry): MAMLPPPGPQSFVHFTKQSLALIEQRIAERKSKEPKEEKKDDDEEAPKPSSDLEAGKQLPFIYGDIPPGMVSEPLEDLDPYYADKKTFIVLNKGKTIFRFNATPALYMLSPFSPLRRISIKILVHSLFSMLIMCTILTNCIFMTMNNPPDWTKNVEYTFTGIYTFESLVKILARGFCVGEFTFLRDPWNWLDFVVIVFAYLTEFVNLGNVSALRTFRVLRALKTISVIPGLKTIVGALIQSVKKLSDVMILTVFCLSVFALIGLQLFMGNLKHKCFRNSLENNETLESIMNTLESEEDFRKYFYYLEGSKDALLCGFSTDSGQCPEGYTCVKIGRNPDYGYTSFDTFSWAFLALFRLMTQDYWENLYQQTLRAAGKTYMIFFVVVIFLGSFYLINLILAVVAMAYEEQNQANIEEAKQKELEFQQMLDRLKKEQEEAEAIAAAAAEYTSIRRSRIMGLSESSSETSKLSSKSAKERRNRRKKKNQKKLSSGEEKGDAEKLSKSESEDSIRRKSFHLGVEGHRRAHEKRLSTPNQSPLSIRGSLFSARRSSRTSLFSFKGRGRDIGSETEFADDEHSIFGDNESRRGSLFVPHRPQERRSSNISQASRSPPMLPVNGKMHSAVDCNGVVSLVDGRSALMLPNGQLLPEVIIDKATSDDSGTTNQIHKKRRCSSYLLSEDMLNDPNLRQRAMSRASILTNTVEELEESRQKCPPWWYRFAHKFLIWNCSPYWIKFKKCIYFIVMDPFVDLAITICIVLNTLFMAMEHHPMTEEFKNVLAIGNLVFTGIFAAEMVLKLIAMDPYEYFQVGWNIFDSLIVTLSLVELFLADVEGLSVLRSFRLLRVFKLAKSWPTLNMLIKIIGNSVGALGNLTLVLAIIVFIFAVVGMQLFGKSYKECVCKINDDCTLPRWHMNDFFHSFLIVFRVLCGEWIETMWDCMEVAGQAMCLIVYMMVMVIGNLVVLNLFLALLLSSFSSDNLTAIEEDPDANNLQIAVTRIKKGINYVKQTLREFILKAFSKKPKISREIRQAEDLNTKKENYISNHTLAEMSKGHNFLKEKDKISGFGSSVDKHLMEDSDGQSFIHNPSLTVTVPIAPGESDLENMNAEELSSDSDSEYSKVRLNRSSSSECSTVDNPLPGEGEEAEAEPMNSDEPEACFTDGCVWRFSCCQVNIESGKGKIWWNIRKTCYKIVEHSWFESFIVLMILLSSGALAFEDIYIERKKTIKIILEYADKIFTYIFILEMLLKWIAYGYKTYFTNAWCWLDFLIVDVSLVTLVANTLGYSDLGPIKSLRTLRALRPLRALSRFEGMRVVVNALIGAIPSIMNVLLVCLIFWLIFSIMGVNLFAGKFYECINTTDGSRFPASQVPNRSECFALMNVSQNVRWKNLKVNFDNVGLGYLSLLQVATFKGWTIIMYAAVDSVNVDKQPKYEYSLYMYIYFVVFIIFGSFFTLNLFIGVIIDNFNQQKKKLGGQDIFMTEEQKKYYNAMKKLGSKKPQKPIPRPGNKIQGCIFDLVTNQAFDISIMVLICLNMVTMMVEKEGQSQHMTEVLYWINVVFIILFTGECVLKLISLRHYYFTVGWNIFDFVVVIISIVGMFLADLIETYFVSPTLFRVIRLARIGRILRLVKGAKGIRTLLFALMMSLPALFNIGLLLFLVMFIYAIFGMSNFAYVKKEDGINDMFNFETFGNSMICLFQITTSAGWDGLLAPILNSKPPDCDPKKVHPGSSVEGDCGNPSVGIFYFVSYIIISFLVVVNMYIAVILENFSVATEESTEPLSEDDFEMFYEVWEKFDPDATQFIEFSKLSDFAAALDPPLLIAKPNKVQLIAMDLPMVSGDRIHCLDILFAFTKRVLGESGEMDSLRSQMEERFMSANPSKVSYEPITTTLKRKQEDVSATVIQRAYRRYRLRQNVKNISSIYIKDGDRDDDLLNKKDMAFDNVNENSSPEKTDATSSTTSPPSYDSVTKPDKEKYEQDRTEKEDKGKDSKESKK

Sequence of NaV1.5 (Q14524 whole entry): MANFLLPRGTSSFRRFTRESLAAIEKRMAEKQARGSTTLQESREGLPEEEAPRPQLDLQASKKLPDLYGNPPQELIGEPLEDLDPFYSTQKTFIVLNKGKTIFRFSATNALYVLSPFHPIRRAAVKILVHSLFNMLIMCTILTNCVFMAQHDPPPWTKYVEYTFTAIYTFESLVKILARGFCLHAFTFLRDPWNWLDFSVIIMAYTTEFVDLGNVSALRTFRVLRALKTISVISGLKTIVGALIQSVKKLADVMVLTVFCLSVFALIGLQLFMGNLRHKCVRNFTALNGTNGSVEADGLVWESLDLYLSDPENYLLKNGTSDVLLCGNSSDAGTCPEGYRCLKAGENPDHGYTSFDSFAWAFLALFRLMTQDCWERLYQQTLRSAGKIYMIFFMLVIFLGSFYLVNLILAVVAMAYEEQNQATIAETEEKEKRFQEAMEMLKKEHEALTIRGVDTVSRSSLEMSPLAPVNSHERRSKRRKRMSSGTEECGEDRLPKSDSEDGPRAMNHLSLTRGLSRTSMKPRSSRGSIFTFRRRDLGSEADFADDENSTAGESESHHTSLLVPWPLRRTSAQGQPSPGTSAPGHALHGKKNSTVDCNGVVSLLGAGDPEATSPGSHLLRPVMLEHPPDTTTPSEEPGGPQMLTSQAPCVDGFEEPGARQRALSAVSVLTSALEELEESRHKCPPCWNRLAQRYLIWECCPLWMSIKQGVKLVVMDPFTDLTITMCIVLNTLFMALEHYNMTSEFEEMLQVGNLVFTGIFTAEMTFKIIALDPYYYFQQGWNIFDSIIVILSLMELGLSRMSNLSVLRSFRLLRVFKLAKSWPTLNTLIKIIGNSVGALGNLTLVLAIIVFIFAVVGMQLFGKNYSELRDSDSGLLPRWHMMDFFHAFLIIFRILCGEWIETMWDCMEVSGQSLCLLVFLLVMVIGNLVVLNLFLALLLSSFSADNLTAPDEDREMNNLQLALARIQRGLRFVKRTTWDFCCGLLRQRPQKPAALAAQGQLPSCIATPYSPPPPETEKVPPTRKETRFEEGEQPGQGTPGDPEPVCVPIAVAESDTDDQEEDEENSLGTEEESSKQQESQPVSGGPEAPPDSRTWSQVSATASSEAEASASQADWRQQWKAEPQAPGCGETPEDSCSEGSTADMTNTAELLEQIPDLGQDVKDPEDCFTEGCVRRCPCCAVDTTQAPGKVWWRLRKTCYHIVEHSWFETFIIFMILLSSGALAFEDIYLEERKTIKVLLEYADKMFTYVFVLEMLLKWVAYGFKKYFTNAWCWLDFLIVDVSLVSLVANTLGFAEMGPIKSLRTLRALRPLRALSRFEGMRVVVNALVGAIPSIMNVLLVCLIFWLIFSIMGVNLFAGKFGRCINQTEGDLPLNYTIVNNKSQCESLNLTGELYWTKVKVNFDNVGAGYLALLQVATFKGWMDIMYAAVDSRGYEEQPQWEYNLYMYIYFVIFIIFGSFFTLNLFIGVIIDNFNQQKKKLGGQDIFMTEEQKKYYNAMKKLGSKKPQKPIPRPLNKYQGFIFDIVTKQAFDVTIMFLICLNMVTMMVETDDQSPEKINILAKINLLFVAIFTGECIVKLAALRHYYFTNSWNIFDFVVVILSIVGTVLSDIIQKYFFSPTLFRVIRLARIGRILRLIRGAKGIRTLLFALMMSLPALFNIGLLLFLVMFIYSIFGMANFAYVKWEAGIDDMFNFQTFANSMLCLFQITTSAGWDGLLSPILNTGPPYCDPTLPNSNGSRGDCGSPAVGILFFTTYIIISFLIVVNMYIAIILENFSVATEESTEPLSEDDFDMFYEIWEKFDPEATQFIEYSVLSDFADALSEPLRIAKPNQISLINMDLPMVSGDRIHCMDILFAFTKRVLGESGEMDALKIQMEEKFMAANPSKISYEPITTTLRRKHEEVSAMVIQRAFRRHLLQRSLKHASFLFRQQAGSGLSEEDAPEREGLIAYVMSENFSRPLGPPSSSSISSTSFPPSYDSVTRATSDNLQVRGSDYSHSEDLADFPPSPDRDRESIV
Sequence of hNaV1.7 (Q15858 whole entry): as the sequence (Q15858 whole entry) above

As a reminder, the IC50 is the concentration needed to halve the response being measured. Consider `CC(C)COc1ncc(-c2cn(C)c3cc(C(=O)NS(=O)(=O)C(C)(C)C)ccc23)cc1Cl` [Example 38, N-(tert-butylsulfonyl)-3-(5-chloro-6-isobutoxypyridin-3-yl)-1-methyl-1H-indole-6-carboxamide], for which the IC50 in data set [1] worked out at 21900 nM; in data set [2] it was 156 nM; in data set [3], 1300 nM.
The matching figures for `CC(C)COc1ncc(-c2nn(C)c3cc(C(=O)NS(C)(=O)=O)ccc23)cc1Cl` [Example 39, 3-(5-Chloro-6-isobutoxypyridin-3-yl)-1-methyl-N-(methylsulfonyl)-1H-indazole-6-carboxamide]: 6510 nM, 67 nM and 66 nM.
The matching figures for `CC(C)COc1ncc(-c2c3ccc(C(=O)NS(C)(=O)=O)cc3nn2C)cc1Cl` [Example 40, 3-(5-Chloro-6-isobutoxypyridin-3-yl)-2-methyl-N-(methylsulfonyl)-2H-indazole-6-carboxamide]: 16700 nM, 1990 nM and 787 nM.
Turning to `CC(C)COc1ncc(-c2c3ccc(C(=O)NS(=O)(=O)C4CC4)cc3nn2C)cc1Cl` [Example 41, 3-(5-Chloro-6-isobutoxypyridin-3-yl)-N-(cyclopropylsulfonyl)-2-methyl-2H-indazole-6-carboxamide], the results for the IC50 in data set [1], in data set [2] and in data set [3] were 11300 nM, 673 nM and 195 nM, respectively.
For `CC(C)COc1ncc(-c2cn(C)c3cc(C(=O)NS(C)(=O)=O)c(F)cc23)cc1Cl` [Example 42, 3-(5-Chloro-6-isobutoxypyridin-3-yl)-5-fluoro-1-methyl-N-(methylsulfonyl)-1H-indole-6-carboxamide], the IC50 in data set [1] stood at 7180 nM; in data set [2], 11 nM; in data set [3], 524 nM.
The like results for `CC(C)COc1ncc(-c2cn(C)c3cc(C(=O)NS(=O)(=O)C4CC4)c(F)cc23)cc1Cl` [Example 43, 3-(5-Chloro-6-isobutoxypyridin-3-yl)-N-(cyclopropylsulfonyl)-5-fluoro-1-methyl-1H-indole-6-carboxamide] were, in that order, 4850 nM, 3.4 nM and 310 nM.
Consider `CC(C)COc1ccc(-c2cn(C)c3cc(C(=O)NS(C)(=O)=O)c(F)cc23)cn1` [Example 44, 5-Fluoro-3-(6-isobutoxypyridin-3-yl)-1-methyl-N-(methylsulfonyl)-1H-indole-6-carboxamide], for which the figures for the IC50 in data set [1], in data set [2] and in data set [3] were 18700 nM, 86 nM and 104 nM, respectively.
As to `CC(C)COc1ccc(-c2cn(C)c3cc(C(=O)NS(=O)(=O)C4CC4)c(F)cc23)cn1` [Example 45, N-(Cyclopropylsulfonyl)-5-fluoro-3-(6-isobutoxypyridin-3-yl)-1-methyl-1H-indole-6-carboxamide], the IC50 in data set [1] was determined as 3700 nM; in data set [2], 26 nM; in data set [3], 59 nM.
In the case of `Cn1cc(-c2ccc(C(F)(F)F)cc2)c2cc(F)c(C(=O)NS(C)(=O)=O)cc21` [Example 46, 5-Fluoro-1-methyl-N-(methylsulfonyl)-3-(4-(trifluoromethyl)phenyl)-1H-indole-6-carboxamide], the IC50 is > 30000 nM in data set [1], 84 nM in data set [2] and 49 nM in data set [3].
The like results for `Cn1cc(-c2ccc(C(F)(F)F)cc2)c2cc(F)c(C(=O)NS(=O)(=O)C3CC3)cc21` [Example 47] were, in that order, 3820 nM, 39 nM and 16 nM.
As for `Cn1cc(-c2ccc(C(F)F)cc2)c2cc(F)c(C(=O)NS(C)(=O)=O)cc21` [Example 48, 3-(4-(Difluoromethyl)phenyl)-5-fluoro-1-methyl-N-(methylsulfonyl)-1H-indole-6-carboxamide], the results for the half-inhibitory concentration (IC50) in data set [1], in data set [2] and in data set [3] were > 30000 nM, 956 nM and 91 nM, respectively.
The matching figures for `Cn1cc(-c2ccc(C(F)F)cc2)c2cc(F)c(C(=O)NS(=O)(=O)C3CC3)cc21` [Example 49, N-(Cyclopropylsulfonyl)-3-(4-(difluoromethyl)phenyl)-5-fluoro-1-methyl-1H-indole-6-carboxamide]: 9670 nM, 146 nM and 38 nM.
